Results taken from US20040106148A1, “Polypeptides” (priority 2000, published 2004).

Tests used:
[1] = target: T1, mouse TAPP2 C-terminal PH domain (residues 174 to 425), GST fusion (Mus musculus, UniProt Q9ERS5); assay: Protein-lipid overlay; assay type: binding; conditions: protein-lipid overlay (FIG. 2)
T1 construct: made in house; host or cells: human embryonic kidney 293 cells (pEBG-2T)
Experimental: (§1) FIG. 2. Phosphoinositide binding properties of the novel PH domains. The ability of the indicated GST fusion proteins to bind a variety of phosphoinositides was analysed using a protein-lipid overlay. Serial dilutions of the indicated phosphoinositides (100 pmol, 50 pmol, 25 pmol, 12.5 pmol, 6.3 pmol, 3.1 pmol and 1.6 pmol) were spotted onto a nitrocellulose membranes which were then incubated with the purified GST fusion proteins. The membranes were washed and the GST-fusion proteins bound to the membrane by virtue of their interaction with lipid were detected using a GST antibody. A representative of at least 3 separate experiments carried out is shown.
(§2) FIG. 4. Comparison of the phosphoinositide binding properties of the N-terminal and C-terminal PH domains of TAPP1 and TAPP2. The ability of wild type and mutant forms of full length (FL) and isolated N-terminal (NT) and C-terminal (CT) PH domains of TAPP1 and TAPP2 GST-fusion proteins to interact with phosphoinositides were analysed using a protein-lipid overlay. Serial dilutions of the indicated phosphoinositides (100 pmol, 50 pmol, 25 pmol, 12.5 pmol, 6.3 pmol, 3.1 pmol and 1.6 pmol) were spotted onto a nitrocellulose membrane which was then incubated with the indicated purified GST fusion proteins. The membranes were washed and the GST-fusion proteins bound to the membrane by virtue of their interactions with lipid were detected using a GST antibody. A representative experiment of three is shown. The isolated N-terminal PH domain of human TAPP1 comprises residues 1 to 147, the isolated C-terminal PH domain of human TAPP1 comprises residues 95 to 404, the isolated N-terminal PH domain of mouse TAPP2 comprises residues 1 to 131 and the isolated C-terminal PH of mouse TAPP2 comprises residues 174 to 425.
(§3) Protein-Lipid overlay. To assess the phosphoinositide binding properties of each PH domain, a protein-lipid overlay assay was performed using the GST fusion proteins as described previously. […] The membrane was blocked in 3% (by mass) fatty acid-free BSA in TBST (50 mM Tris/HCl pH 7.5, 150 mM NaCl and 0.1% Tween-20 (by vol) for lh. The membrane was then incubated overnight at 4° C. with gentle agitation in the same solution containing 0.2 μg/ml of the indicated GST fusion protein. The membranes were washed 6 times over 30 min in TBST and then incubated for 1 h with 1/1000 dilution of anti-GST monoclonal antibody (Sigma). The membranes were washed as before, then incubated for 1 h with 1/5000 dilution of anti-mouse-HRP conjugate (Pierce). Finally, the membranes were washed 12 times over 1 h in TBST and the GST-fusion protein bound to the membrane by virtue of its interaction with phospholipid was detected by enhanced chemiluminescence.

[2] = target: human TAPP1 C-terminal PH domain (residues 95 to 404), GST fusion (Homo sapiens, UniProt Q9HB21); assay: Protein-lipid overlay; assay type: binding; conditions: protein-lipid overlay (FIG. 2)
Experimental: as §1, §2, §3

GST-DAPP1 = conditions: control; cited from earlier work

human TAPP1 C-terminal PH domain (residues 95 to 404), GST fusion, sequence (Q9HB21 95-404): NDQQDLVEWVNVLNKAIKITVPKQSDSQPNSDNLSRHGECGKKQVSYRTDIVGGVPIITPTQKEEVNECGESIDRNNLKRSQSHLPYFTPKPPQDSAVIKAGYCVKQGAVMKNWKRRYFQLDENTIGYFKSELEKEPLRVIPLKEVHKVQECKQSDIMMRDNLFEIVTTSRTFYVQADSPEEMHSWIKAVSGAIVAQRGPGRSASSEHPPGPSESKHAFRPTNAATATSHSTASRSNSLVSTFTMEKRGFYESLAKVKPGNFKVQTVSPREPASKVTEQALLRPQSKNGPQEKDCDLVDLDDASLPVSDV
T1 sequence (Q9ERS5 174-425): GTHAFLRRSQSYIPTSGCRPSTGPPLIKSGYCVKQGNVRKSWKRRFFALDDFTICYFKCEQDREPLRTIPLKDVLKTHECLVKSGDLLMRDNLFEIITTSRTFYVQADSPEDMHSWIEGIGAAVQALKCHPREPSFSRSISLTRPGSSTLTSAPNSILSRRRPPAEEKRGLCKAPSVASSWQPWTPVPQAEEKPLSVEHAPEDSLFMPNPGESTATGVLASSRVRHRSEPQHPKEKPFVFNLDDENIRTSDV

CCCCCCCCCCCCCCCC(=O)OC[C@H](COP(=O)(O)O[C@H]1[C@H](O)[C@@H](O)[C@H](OP(=O)(O)O)[C@@H](OP(=O)(O)O)[C@H]1O)OC(=O)CCCCCCCCCCCCCCC [PtdIns(3,4)P2]
phosphoinositide binding [1]: interacted | phosphoinositide binding [2]: interacted | phosphoinositide binding (GST-DAPP1): binds
